Measured values as given in patent publication US6335339B1, “Triazine antiviral compounds” (Scriptgen Pharmaceuticals, Inc., priority 1998, dated 2002).

These compounds were tested on 2.2.15 cells (assay: neutral red dye uptake cytotoxicity). Conditions: 9 days treatment, read-out: 50% Cell Death CC50.
Format: cell-based
Description: Further, the antiviral effect of any compound must be measured against its toxicity. Cytotoxicity is measured by the neutral red uptake method using the same cells used for antiviral activity.
2b. Compounds were prepared for toxicity treatment as follows: For each compound, a total of 4 concentrations were examined. This required 9 sets of 4 sterile, 1.1 ml minitubes (36 tubes per compound). Into the first tube of each set, sufficient compound was aliquoted to make up 465 μl of the highest test concentration. The other tubes were left empty. The tubes were covered with the rack lids, and stored at −20° C. or at an appropriate temperature. Tubes for the last day of treatment for toxicity testing contain the same amount of compound as used the previous days (not 3xas for the antiviral assays).
3b. The cytotoxicity of test compounds was analyzed in a 3.3-fold dilution series as follows. […] (155 μl×3) of RP2 were added to the first tube (containing the aliquot of compound) and 310 μL (155 μl×2) RP2 to each of the 3 remaining tubes. 150 μl of test compound-containing medium were serially transferred from the first tube to the other 3 tubes.
5. A single plate was used for the toxicity treatments for each test compound (up to 7 compounds per plates since the top row were reserved for untreated cells on every toxicity plate). To initiate the treatments, the culture medium was removed, and 100 μl of each dilution of every compound were added to each of 3 wells using a configuration similar to that shown above for the antiviral treatments. The untreated cells received 100 μl RP2 per well. Treatment was repeated daily for 9 days.
The antiviral effect of any compound was evaluated relative to its toxicity. Cells were seeded and treated following the guidelines above, after which a neutral red dye uptake assay was performed to assess toxicity as described below. Other assays of cytotoxicity (e.g., MTT) can be substituted for the procedure described below. Note that this procedure assesses toxicity under culture and treatment conditions which are identical to those used for the antiviral analyses, thereby permitting a determination as to whether the reduction in virus production due to a specific antiviral effect or due to a cytotoxic effect on the host cell. Since the cultures, by necessity, are at confluence, the cytotoxic effects of the test compounds will probably be reduced relative to the cytotoxic effects that would be expected for actively dividing cells.
1. Cultures were treated with test compounds on the designated toxicity plates as described above.
2. The culture medium was carefully removed 24 hours following the 9th day of treatment. The monolayer was fully removed in the top left three wells (row A, col. 1-3). These wells were used as “blanks” for the plate reader.
3. 100 μl DPBS (containing 0.01% neutral red dye) were added to each well, including the empty wells, and Incubated in the tissue culture incubator for 30 minutes.
4. The dye was removed carefully and gently, using a multichannel pipetman since the monolayers can become fragile after incubation with neutral red dye. 200 μl DPBS were added to all the wells taking care not to displace the monolayers. The DPBS was removed and 100 μl 50% EtOH/1% glacial acetic acid (in H2O) were added to each well. The plates were mixed for 15 minutes on an orbital platform shaker (120-150 RPM) to allow for full extraction of the dye from the cells.
5. Optical absorbance at 510 nm was read in an ELISA type plate reader, using the 3 empty wells to set the background. An average absorbance value was calculated for the 9 untreated cultures on a plate, and the absorbance of dye for the treated cultures on the same plate was expressed as a percentage of that value. This procedure was repeated for each individual plate. […]

Row | Structure (SMILES) | CC50
1 | CCN(CC)c1nc(Nc2cccc(Br)c2)nc(Nc2cc(C)ccc2C)n1 [Compound 202] | > 300 µM
2 | CC(C=NNc1nc(Nc2ccc([N+](=O)[O-])cc2)nc(Nc2ccc(C)c(C)c2)n1)=Cc1ccccc1 [Compound 19] | > 300 µM
3 | Cc1ccc(Nc2nc(NN=Cc3ccc(O)cc3O)nc(Nc3ccc([N+](=O)[O-])cc3)n2)cc1C [Compound 9] | 175 µM
4 | Cc1ccccc1Nc1nc(NN=Cc2ccc3c(c2)OCO3)nc(Nc2ccc([N+](=O)[O-])cc2)n1 [Compound 29] | 15 µM
5 | Cc1ccc(Nc2nc(NN=Cc3ccccc3)nc(Nc3ccccc3)n2)cc1 [Compound 25] | 105 µM
6 | Oc1ccc(Cl)cc1C=NNc1nc(Nc2ccc3ccccc3c2)nc(N2CCOCC2)n1 [Compound 160] | > 300 µM
7 | Brc1ccc(Nc2nc(NCc3ccccc3)nc(Nc3ccc(Br)cc3)n2)cc1 [Compound 230] | 231 µM
8 | COc1c(C=NNc2nc(N3CCCC3)nc(N3CCOCC3)n2)cccc1[N+](=O)[O-] [Compound 193] | 666 µM
9 | Oc1ccccc1C=NNc1nc(Nc2ccccc2)nc(N2CCCCC2)n1 [Compound 169] | > 300 µM
10 | Clc1ccc(C=NNc2nc(Nc3ccccc3)nc(N3CCCC3)n2)cc1 [Compound 218] | > 300 µM
11 | C(=Cc1ccccc1)C=NNc1nc(Nc2ccccc2)nc(Nc2ccccc2)n1 [Compound 125] | 265 µM
12 | COc1cccc(C=NNc2nc(Nc3ccccc3)nc(N3CCCC3)n2)c1O [Compound 170] | 499 µM
13 | CC(=NNc1nc(NCc2ccccc2)nc(Nc2ccccc2)n1)c1ccc([N+](=O)[O-])cc1 [Compound 182] | > 300 µM
14 | CCCCN(CCCC)c1nc(NN=Cc2cccc(Cl)c2)nc(Nc2ccc([N+](=O)[O-])cc2)n1 [Compound 35] | 3.9 µM
15 | Oc1ccc(I)cc1C=NNc1nc(NCc2ccccc2)nc(Nc2ccccc2)n1 [Compound 33] | 50 µM
16 | COc1ccc(Br)cc1/C=N/Nc1nc(Nc2cccc([N+](=O)[O-])c2)nc(N2CCOCC2)n1 [Compound 28] | 33 µM
